Patent US10251860B2, “Compounds for bone healing” (University of Pittsburgh—Of the Commonwealth System of …, priority 2015, dated 2019)

Tests used:
[1] = Description: (§1) Eppendorf vials (1.5 mL size) were charged with model compounds in excess. […] The vials were briefly vortexed and equilibrated in an end-over-end rotator at 30.0° C. for 20 hours.
as §1

Brine shrimp = Brine shrimp toxicity assay; type: in vivo
Description: General procedure for brine shrimp toxicity assays. Sample preparation. Stock solutions of 3 were prepared by dissolving 3 (50.0 mg) in 5.0 HPLC grade water (5.0 mL), (solution A) and 3 (2.50 g) in HPLC grade water (10.0 mL) (solution B). Stock solutions of DMSO were prepared by diluting DMSO (45 μL) with HPLC grade water (5.0 mL) (solution C) and DMSO (2.27 mL) with HPLC grade water (10.0 mL) (solution D).
In each case, 5 replicates were performed. Each replicate was performed in a 2 dram vial marked at the 4 and 5 mL volume points. To each vial was added artificial sea water (3 mL) followed by the appropriate volume of stock solution. For set 1 (1.0 mg/mL), solution A (0.500 mL) or solution C (0.500 mL) was added. For set 2 (5.0 mg/mL), solution B (0.100 mL) or solution D (0.100 mL) was added to each vial. For set 3 (20.0 mg/mL), solution B (0.400 mL) or solution D (0.400 mL) was added to each vial. For set 4 (50.0 mg/mL), solution B (1.00 mL) or solution D (1.00 mL) was added to each vial. Controls containing HPLC grade water (0.100 mL, 0.400 mL, and 1.00 mL) were prepared in the same manner, and five replicates of each control were prepared.
Brine shrimp eggs (San Francisco Bay Brand) were hatched in a commercial salt mixture (Instant Ocean). Constant aeration was provided using a pump and airstone, and illumination was maintained using a desk lamp. The shrimp were collected in a separate tank after 48 hours and used within 3-4 hours of collection.
Brine shrimp were added to each vial using a plastic transfer pipet. After the shrimp were transferred, artificial sea-water was added until the volume reached the 5-mL mark. One drop of a yeast suspension prepared by suspending 11 mg yeast in sea-water (20 mL) was added to each vial. The shrimp were counted at t=24 hours. Another drop of freshly prepared yeast solution (6 mg in 10 mL sea water) was added, the vials were maintained under illumination, and shrimp were counted at t=48 hours.

[2] = reported value; cited from earlier work
[3] = Water absorption of compound storage media (Karl Fischer titration); type: physicochemical; settings: for Water content at t = 7 d: room temperature, pierced septum
Description: General procedure for calculation of water absorption. Oven-dried flasks capped with septa were cooled under a N2 atmosphere and charged with a volume of the appropriate solutions (DMSO, 3.0 mL; NMP, 600 μL; 25% 3/NMP, 600 μL). The water content was determined by Karl Fischer titration using about 100 μL aliquots (t=0 measurement). Each septum was pierced with a 1.5 inch 18 gauge needle and left to stand at room temperature for 7 days. The water content was measured at the end of this period (t=7 d measurement) by Karl Fischer titration. All measurements were made in duplicate. Results and Discussion.

liver cell line (HepG2) = type: cell-based
From the text: (§2) The cellular toxicity of sulfoxide 3 was further determined for a breast cancer cell line (MDA-MB-231) and a liver cell line (HepG2).

[4] = tested on: breast cancer cell line (MDA-MB-231); type: cell-based
From the text: as §2

COc1cc(/C=C/C(=O)CC(=O)/C=C/c2ccc(O)c(OC)c2)ccc1O [Compound 7, curcumin]
effect of addition of sulfoxide 3 on aqueous solubility [1]: increased the aqueous solubility

COC(=O)Nc1nc2ccccc2[nH]1 [Compound 10, carbendazim]
effect of addition of sulfoxide 3 on aqueous solubility [1]: increased the aqueous solubility

COC1=CC(=O)C[C@@H](C)[C@]12Oc1c(Cl)c(OC)cc(OC)c1C2=O [Compound 11, griseofulvin]
effect of addition of sulfoxide 3 on aqueous solubility [1]: increased the aqueous solubility

C[S+](C)[O-] [DMSO, dimethyl sulfoxide, reference compound]
% Mortality after 24 h (Brine shrimp; 1 mg/mL): 0% | % Mortality after 48 h (Brine shrimp; 1 mg/mL): 0-10% | % Mortality after 24 h (Brine shrimp; 5 mg/mL): 0% | % Mortality after 48 h (Brine shrimp; 5 mg/mL): 0-6% | % Mortality after 24 h (Brine shrimp; 20 mg/mL): 0% | % Mortality after 48 h (Brine shrimp; 20 mg/mL): 0% | % Mortality after 24 h (Brine shrimp; 50 mg/mL): 0% | % Mortality after 48 h (Brine shrimp; 50 mg/mL): 15% | mortality after 24 h (Brine shrimp; same concentrations (1-50 mg/mL)): no mortality | reported log P [2]: −1.3 | Water content at t = 0 ([3]; first vessel): 160 ppm | Water content at t = 7 d ([3]; first vessel): 1080 ppm | Water content at t = 0 ([3]; second vessel): 170 ppm | Water content at t = 7 d ([3]; second vessel): 1130 ppm | GI50 (liver cell line (HepG2)): ~800 mM | GI50 [4]: ~800 mM

CN1CCCC1=O [NMP, N-methyl-2-pyrrolidone]
Water content at t = 0 ([3]; first vessel): 150 ppm | Water content at t = 7 d ([3]; first vessel): 12,090 ppm | Water content at t = 0 ([3]; second vessel): 130 ppm | Water content at t = 7 d ([3]; second vessel): 17,000 ppm
